According to publication PMC4317638 (Emerging Microbes & Infections, 2014):
Like-named read-outs stand apart in the source and are kept apart here.

Tests used:
in vitro = settings: human, Cytotoxicity IC50
[1] = tested on: Ebola VLP entry into HeLa cells; assay: microbe, parasite or virus in culture; assay type: cell-based, Ebola virus; settings: for IC50 / IC90 / Emax: Zaire ebolavirus, HeLa; for IC90: read-out: Block Ebola VLP entry IC90; for Emax: read-out: Block Ebola VLP entry Max. Inh.
[2] = read-out: Block Ebola VLP entry IC50
[3] = read-out: IC50 of blocking Ebola VLP entry

COC(=O)Nc1nc2ccc(C(=O)c3cccs3)cc2[nH]1 [Nocodazole]
IC50 (in vitro): > 500 µM | Selectivity Index [1]: >1242 fold | IC50 [1, 2]: 0.402 µM | IC90 [1]: 1.04 µM | Emax [1]: 87% | IC50 [1, 3]: 0.4 µM

O=C(Nc1ccc([N+](=O)[O-])cc1Cl)c1cc(Cl)ccc1O [Niclosamide]
IC50 (in vitro): > 500 µM | Selectivity Index [1]: >188 fold | IC50 [1, 2]: 2.66 µM | IC90 [1]: 6.6 µM | Emax [1]: 81%

CO[C@@H]1[C@@H](OC)[C@H](C)[C@@](O)(CC(=O)O)O[C@H]1[C@H](C)[C@H]1O[C@@]2(CC[C@@](C)([C@H]3CC[C@@](C)([C@@H]4O[C@@H]([C@H]5O[C@](C)(O)[C@H](C)C[C@@H]5C)C[C@@H]4O[C@@H]4C[C@H](OC)[C@@H](OC)[C@H](C)O4)O3)O2)C[C@H](O)[C@H]1C [Maduramicin]
IC50 (in vitro): 24.3 µM | Selectivity Index [1]: 40 fold | IC50 [1, 2]: 0.611 µM | IC90 [1]: 3.94 µM | Emax [1]: 104%

CC(C)C[C@H](NC(=O)[C@H](CCc1ccccc1)NC(=O)CN1CCOCC1)C(=O)N[C@@H](Cc1ccccc1)C(=O)N[C@@H](CC(C)C)C(=O)[C@@]1(C)CO1 [Carfilzomib]
IC50 (in vitro): > 500 µM | Selectivity Index [1]: >1156 fold | IC50 [1, 2]: 0.432 µM | IC90 [1]: 1.88 µM | Emax [1]: 57%

CCN(CC)CCOc1ccc2c(c1)C(=O)c1cc(OCCN(CC)CC)ccc1-2 [Tilorone]
IC50 (in vitro): > 500 µM | Selectivity Index [1]: >146 fold | IC50 [1, 2]: 3.43 µM | IC90 [1]: 19 µM | Emax [1]: 100%

CCCSc1ccc2nc(NC(=O)OC)[nH]c2c1 [Albendazole]
IC50 (in vitro): > 500 µM | Selectivity Index [1]: >102 fold | IC50 [1, 2]: 4.9 µM | IC90 [1]: 20.7 µM | Emax [1]: 76% | IC50 [1, 3]: 4.8 µM

CN1[C@@H]2CC[C@H]1C[C@@H](OC(c1ccccc1)c1ccccc1)C2 [Benztropine]
IC50 (in vitro): 250 µM | IC90 [1]: 8.25 µM | Emax [1]: 100%

CN1CCN(CCCN2c3ccccc3Sc3ccc(S(=O)(=O)N(C)C)cc32)CC1 [Thioproperazine]
IC50 (in vitro): > 500 µM | IC50 [1, 2]: 4.32 µM | IC90 [1]: 12.5 µM | Emax [1]: 103%

CC[C@]1(O)C[C@@H]2CN(CCc3c([nH]c4ccccc34)[C@@](C(=O)OC)(c3cc4c(cc3OC)N(C)[C@H]3[C@@](O)(C(=O)OC)[C@H](OC(C)=O)[C@]5(CC)C=CCN6CC[C@]43[C@@H]65)C2)C1 [Vinblastine]
IC50 (in vitro): > 500 µM | Selectivity Index [1]: >10 324 fold | IC50 [1, 2]: 0.048 µM | IC90 [1]: 0.13 µM | Emax [1]: 87%

COc1cc2ncnc(Nc3ccc(F)c(Cl)c3)c2cc1OCCCN1CCOCC1 [Gefitinib]
IC90 [1]: 17.9 µM

COCC(=O)O[C@]1(CCN(C)CCCc2nc3ccccc3[nH]2)CCc2cc(F)ccc2[C@@H]1C(C)C [Mibefradil]
IC50 (in vitro): 43.2 µM | Selectivity Index [1]: 10 fold | IC50 [1, 2]: 4.32 µM | IC90 [1]: 7.34 µM | Emax [1]: 96%

COc1cccc2c1C(=O)c1c(O)c3c(c(O)c1C2=O)C[C@@](O)(C(C)=O)C[C@@H]3O[C@H]1C[C@H](N)[C@H](O)[C@H](C)O1 [Daunomycin]
IC50 (in vitro): > 500 µM | Selectivity Index [1]: >190 fold | IC50 [1, 2]: 2.63 µM | IC90 [1]: 5.4 µM | Emax [1]: 98%

CN[C@H]1CC[C@@H](c2ccc(Cl)c(Cl)c2)c2ccccc21 [Zoloft, sertraline]
IC90 [1]: 9.08 µM

CCCN(CCC)C(=O)C(CCC(=O)OCCCN1CCN(CCOC(=O)Cc2c(C)n(C(=O)c3ccc(Cl)cc3)c3ccc(OC)cc23)CC1)NC(=O)c1ccccc1 (centres unmarked) [Proglumetacin]
IC50 (in vitro): > 500 µM | Selectivity Index [1]: >73 fold | IC50 [1, 2]: 6.85 µM | IC90 [1]: 17.3 µM | Emax [1]: 93%

CC/C(=C(\c1ccccc1)c1ccc(OCCN(C)C)cc1)c1ccccc1 [Tamoxifen]
IC50 (in vitro): 99.8 µM | IC90 [1]: 3.15 µM | Emax [1]: 97%

CC1CCCCN1CCCOC(=O)c1ccc(OC2CCCCC2)cc1 (centres unmarked) [Cyclomethycaine]
IC50 (in vitro): > 500 µM | Selectivity Index [1]: >65 fold | IC50 [1, 2]: 7.69 µM | IC90 [1]: 19.6 µM | Emax [1]: 86%

CCCCc1oc2ccc(NS(C)(=O)=O)cc2c1C(=O)c1ccc(OCCCN(CCCC)CCCC)cc1 [Dronedarone]
IC50 (in vitro): 48 µM | Selectivity Index [1]: 21 fold | IC50 [1, 2]: 2.2 µM | IC90 [1]: 3.51 µM | Emax [1]: 81%

CCN(CC)CCNC(=O)c1c(C)[nH]c(/C=C2\C(=O)Nc3ccc(F)cc32)c1C [Sunitinib]
IC50 (in vitro): 148 µM | Selectivity Index [1]: 77 fold | IC50 [1, 2]: 1.91 µM | IC90 [1]: 3.82 µM | Emax [1]: 90%

CC[C@H]1OC(=O)[C@H](C)[C@@H](O[C@H]2C[C@@](C)(OC)[C@@H](O)[C@H](C)O2)[C@H](C)[C@@H](O[C@@H]2O[C@H](C)C[C@H](N(C)C)[C@H]2O)[C@](C)(OC)C[C@@H](C)C(=O)[C@H](C)[C@@H](O)[C@]1(C)O [Clarithromycin]
IC50 (in vitro): > 500 µM | Selectivity Index [1]: >110 fold | IC50 [1, 2]: 4.53 µM | IC90 [1]: 15.1 µM | Emax [1]: 100%

CNCCCC12CCC(c3ccccc31)c1ccccc12 [Maprotiline]
IC50 (in vitro): 146 µM | IC90 [1]: 12.1 µM | Emax [1]: 100%

O=C(CCN1CCN2CCCC2C1)N1c2ccccc2Sc2ccc(Cl)cc21 (centres unmarked) [Azaclorzine]
IC50 (in vitro): > 500 µM | Selectivity Index [1]: >53 fold | IC50 [1, 2]: 9.43 µM | IC90 [1]: 37.1 µM | Emax [1]: 88%

COc1cc2c(c(OC)c1OC)-c1ccc(OC)c(=O)cc1[C@@H](NC(C)=O)CC2 [Colchicine]
IC50 (in vitro): > 500 µM | IC90 [1]: 0.354 µM | Emax [1]: 73%

CC[C@H]1OC(=O)[C@H](C)[C@@H](O[C@H]2C[C@@](C)(OC)[C@@H](O)[C@H](C)O2)[C@H](C)[C@@H](O[C@@H]2O[C@H](C)C[C@H](N(C)C)[C@H]2O)[C@](C)(O)C[C@@H](C)CN(C)[C@H](C)[C@@H](O)[C@]1(C)O [Azithromycin]
IC50 (in vitro): > 500 µM | Selectivity Index [1]: >179 fold | IC50 [1, 2]: 2.79 µM | IC90 [1]: 15.8 µM | Emax [1]: 100%

Cc1cn(-c2cc(NC(=O)c3ccc(C)c(Nc4nccc(-c5cccnc5)n4)c3)cc(C(F)(F)F)c2)cn1 [Nilotinib]
IC50 (in vitro): 50.1 µM | Selectivity Index [1]: 2 fold | IC50 [1, 2]: 24.3 µM | IC90 [1]: 104 µM | Emax [1]: 100% | IC50 [1, 3]: 15.3 µM

COc1ccc2cc1Oc1ccc(cc1)C[C@H]1c3c(cc4c(c3Oc3cc5c(cc3OC)CCN(C)[C@@H]5C2)OCO4)CCN1C [Cepharanthine]
IC50 (in vitro): 88.9 µM | Selectivity Index [1]: 58 fold | IC50 [1, 2]: 1.53 µM | IC90 [1]: 4.4 µM | Emax [1]: 112%

CC[C@@H]([C@H](C)O)n1ncn(-c2ccc(N3CCN(c4ccc(OC[C@@H]5CO[C@@](Cn6cncn6)(c6ccc(F)cc6F)C5)cc4)CC3)cc2)c1=O [Posaconazole]
IC50 (in vitro): > 500 µM | Selectivity Index [1]: >65 fold | IC50 [1, 2]: 7.69 µM | IC90 [1]: 8.33 µM | Emax [1]: 77%

O=C(c1ccc(OCCN2CCCCC2)cc1)c1c(-c2ccc(O)cc2)sc2cc(O)ccc12 [Raloxifene/Evista, Raloxifene]
IC50 (in vitro): > 500 µM | Selectivity Index [1]: >271 fold | IC50 [1, 2]: 1.84 µM | IC90 [1]: 9.01 µM | Emax [1]: 100% | IC50 [1, 3]: 1.8 µM

CN(C)CCCN1c2ccccc2CCc2ccccc21 [Imipramine]
IC50 (in vitro): > 500 µM

Cc1c(-c2ccc(O)cc2)n(Cc2ccc(OCCN3CCCCCC3)cc2)c2ccc(O)cc12 [Bazedoxifene]
IC50 (in vitro): 43.2 µM

Maraviroc
Activity in the Ebola VLP assay [1]: not active
